Measurements: US7153815B2, “Insecticide containing hydrazone derivative as the active ingredient and novel hydrazone derivative” (Nihon Nohyaku Co., Ltd., priority 2002, dated 2006)

Legend:
[1] = test system: larvae of cabbage moth (Plutella xylostera); assay: Insecticidal effect against larvae of cabbage moth (leaf immersion); assay type: in vivo
Protocol: Insecticidal Effect Against Larvae of Cabbage Moth (Plutella xylostera)
(§1) A piece of cabbage leaf (diameter: 6 cm) was immersed for 1 minute in a water-diluted solution of the insecticide (wettable powder) of the present invention prepared according to the prescription of Formulation Example 1. After immersion, the cabbage was air-dried and placed in a plastic cup (inner diameter: 7 cm), and then inoculated with 5 larvae of cabbage moth in the third stage therein (1-concentration, 2-repetion). The cup was allowed to stand in a room thermostated at 25° C. Four days after the inoculation, dead or alive larvae or suffuring larvae were counted, and mortality (%) was calculated wherein a suffering larva was regarded as 0.5 dead larva. When compounds of Compound Nos. described below were subjected to the test, the mortality was 100% in a compound concentration of 500 ppm. In the meanwhile, the Compounds Nos. correspond to ones in Tables 1 to 8.

[2] = test system: larvae of common cutworm (Spodoptera litura); assay: Insecticidal effect against larvae of common cutworm (leaf immersion); assay type: in vivo; conditions: in Brassica oleracea
Protocol: Insecticidal Effect Against Larvae of Common Cutworm (Spodoptera litura)
as §1, with “powder),of” for “powder) of”, “common cutworm” for “cabbage moth”

| Structure (SMILES) | mortality at 500 ppm [1] [%] | mortality at 500 ppm [2] [%] |
| --- | --- | --- |
| COc1ccc(CNC(=O)C(C)=NNc2ccc(Cl)cc2)cc1 [Compound No. 93, N-(4-methoxybenzyl)-2-(4-chlorophenyl hydrazono) propionic acid amide] | 100 |  |
| CC(=NNc1ccc(C(F)(F)F)cc1)C(=O)NCc1ccc(Cl)nc1 [Compound No. 63, N-(6-chloro-3-pyridylmethyl)-2-(4-trifluoromethylphenyl hydrazono) propionic acid amide] | 100 | 100 |
| CCOCC(=NNc1ccc(C(F)(F)F)cc1)C(=O)NCc1ccc(Cl)nc1 [Compound No. 170, N-(6-chloro-3-pyridylmethyl)-3-ethoxy-2-(4-trifluoromethylphenyl hydrazono) propionic acid amide] | 100 |  |
| CC(=NN(C)c1ccc(C(F)(F)F)cc1)C(=O)NCc1ccc(Cl)nc1 [Compound No. 110, N-(6-chloro-3-pyridylmethyl)-2-[N-methyl-N-(4-trifluoromethylphenyl) hydrazono]propionic acid amide] | 100 | 100 |
| C/C(=N\Nc1ccc(Cl)cc1)C(=O)NNc1ccc(Cl)cc1 [Compound No. 104, (E)-N′-(4-chlorophenyl)-2-(4-chlorophenyl hydrazono) propionic acid hydrazide] | 100 | 100 |
| CC(=NN(C)c1ccc(C(F)(F)F)cc1)C(=O)NCc1ccc(Cl)cc1 [Compound No. 109, N-(4-chlorobenzyl)-2-[N-methyl-N-(4-trifluoromethylphenyl) hydrazono]propionic acid amide] | 100 | 100 |
| CNC(=NNc1ccc(C(F)(F)F)cc1)C(=O)NCc1ccc(Cl)nc1 [Compound No. 191, N-(6-chloro-3-pyridylmethyl)-2-methylamino-2-(4-trifluoromethylphenyl hydrazono) acetic acid amide] | 100 | 100 |
| N#CC(=NNc1ccc(C(F)(F)F)cc1)C(=O)NCc1ccc(Cl)nc1 [Compound No. 184, N-(6-chloro-3-pyridylmethyl)-2-cyano-2-(4-trifluoromethylphenyl hydrazono) acetic acid amide] | 100 | 100 |
| O=C(NCc1ccc(Cl)nc1)C(Cl)=NNc1ccc(C(F)(F)F)cc1 [Compound No. 5, N-(6-chloro-3-pyridylmethyl)-2-chloro-2-(4-trifluoromethylphenyl hydrazono) acetic acid amide] | 100 |  |
| CC(=NNc1ccc(C(F)(F)F)cc1)C(=O)NCc1ccc(Cl)cc1 [Compound No. 62, N-(4-chlorobenzyl)-2-(4-trifluoromethylphenyl hydrazono) propionic acid amide] | 100 | 100 |
| C/C(=N/Nc1ccc(Cl)cc1)C(=O)NNc1ccc(Cl)cc1 [Compound No. 105, (Z)-N′-(4-chlorophenyl)-2-(4-chlorophenyl hydrazono) propionic acid hydrazide] | 100 | 100 |
